Values after ≈ are worked out from the molar mass of the structure shown. Each block holds one compound with its values, some of them ahead of it.
What was measured:
[1] = tested on: MDA-MB-231; test: cells; conditions: Homo sapiens
Description: Antiproliferative activity against human MDA-MB-231 cells by MTT assay

[2] = tested on: DU-145; test: Antiproliferative activity against human DU-145 cells by MTT assay
[3] = Solubility of compound; type: physicochemical
[4] = tested on: A2780; test: Antiproliferative activity against human A2780 cells by MTT assay
[5] = tested on: A549; test: cells; conditions: Homo sapiens
Description: Antiproliferative activity against human A549 cells by MTT assay

[6] = tested on: HCT-116; test: Antiproliferative activity against human HCT-116 cells by MTT assay
[7] = tested on: HCT-116; test: Induction of apoptosis in human HCT-116 cells assessed as necrotic cells at 0.5 uM by Annexin V-FITC/PI staining based assay (reference value: 1.05%); type: functional
[8] = tested on: HCT-116; test: Induction of apoptosis in human HCT-116 cells assessed as early apoptotic cells at 2 uM by Annexin V-FITC/PI staining based assay (reference value: 1.82%); type: functional
[9] = tested on: HCT-116; test: Induction of apoptosis in human HCT-116 cells assessed as necrotic cells at 1 uM by Annexin V-FITC/PI staining based assay (reference value: 1.05%); type: functional
[10] = tested on: HCT-116; test: Induction of apoptosis in human HCT-116 cells assessed as late apoptotic cells at 2 uM by Annexin V-FITC/PI staining based assay (reference value: 0.37%); type: functional
[11] = tested on: MCF7; test: cells; conditions: Homo sapiens
Description: Antiproliferative activity against human MCF7 cells by MTT assay

[12] = tested on: HCT-116; test: Induction of apoptosis in human HCT-116 cells assessed as early apoptotic cells at 0.5 uM by Annexin V-FITC/PI staining based assay (reference value: 1.82%); type: functional
[13] = tested on: HCT-116; test: Induction of apoptosis in human HCT-116 cells assessed as viable cells at 1 uM by Annexin V-FITC/PI staining based assay (reference value: 96.76%); type: functional; conditions: read-out: Activity
[14] = tested on: HCT-116; test: Induction of apoptosis in human HCT-116 cells assessed as necrotic cells at 2 uM by Annexin V-FITC/PI staining based assay (reference value: 1.05%); type: functional
[15] = tested on: HCT-116; test: Induction of apoptosis in human HCT-116 cells assessed as late apoptotic cells at 0.5 uM by Annexin V-FITC/PI staining based assay (reference value: 0.37%); type: functional
[16] = tested on: HCT-116; test: Induction of apoptosis in human HCT-116 cells assessed as viable cells at 2 uM by Annexin V-FITC/PI staining based assay (reference value: 96.76%); type: functional; conditions: read-out: Activity
[17] = tested on: HCT-116; test: Induction of apoptosis in human HCT-116 cells assessed as late apoptotic cells at 1 uM by Annexin V-FITC/PI staining based assay (reference value: 0.37%); type: functional
[18] = tested on: HCT-116; test: Induction of apoptosis in human HCT-116 cells assessed as early apoptotic cells at 1 uM by Annexin V-FITC/PI staining based assay (reference value: 1.82%); type: functional
[19] = tested on: HCT-116; test: Induction of apoptosis in human HCT-116 cells assessed as viable cells at 0.5 uM by Annexin V-FITC/PI staining based assay (reference value: 96.76%); type: functional; conditions: read-out: Activity
[20] = tested on: HCT-116; test: Induction of cell cycle arrest in human HCT-116 cells assessed as increase in S-phase cells at 0.5 uM; type: functional
[21] = tested on: HCT-116; test: Induction of cell cycle arrest in human HCT-116 cells assessed as increase in S-phase cells; type: functional, cell-based
[22] = tested on: HCT-116; test: Induction of apoptosis in human HCT-116 cells assessed as late apoptotic cells at 0.25 uM by Annexin V-FITC/PI staining based assay (reference value: 0.37%); type: functional
[23] = tested on: HCT-116; test: Induction of apoptosis in human HCT-116 cells assessed as early apoptotic cells at 0.25 uM by Annexin V-FITC/PI staining based assay (reference value: 1.82%); type: functional
[24] = tested on: HCT-116; test: Antitumor activity against human HCT-116 cells xenografted in nude mouse assessed as tumor growth inhibition at 60 mg/kg, ip measured every 3 days; type: functional; design: scale not given: the % may be the effect or the level left
[25] = tested on: HCT-116; test: Induction of apoptosis in human HCT-116 cells assessed as early apoptotic cells at 0.125 uM by Annexin V-FITC/PI staining based assay (reference value: 1.82%); type: functional
[26] = tested on: HCT-116; test: Antiproliferative activity against human HCT-116 cells assessed as reduction in EdU positive cells at 0.25 uM; type: functional, cell-based
[27] = tested on: HCT-116; test: Induction of apoptosis in human HCT-116 cells assessed as necrotic cells at 0.25 uM by Annexin V-FITC/PI staining based assay (reference value: 1.05%); type: functional
[28] = tested on: HCT-116; test: Upregulation of H3K4me1 expression in human HCT-116 cells at 0.125 to 0.5 uM; type: functional, cell-based; conditions: dose 0.125-0.5 µM
[29] = tested on: HCT-116; test: Induction of apoptosis in human HCT-116 cells assessed as viable cells at 0.125 uM by Annexin V-FITC/PI staining based assay (reference value: 96.76%); type: functional; conditions: read-out: Activity
[30] = Toxicity in nude mouse xenografted with human HCT-116 cells assessed as change in body weight at 60 mg/kg, ip; type: organism-based; conditions: in vivo
[31] = tested on: HCT-116; test: Induction of apoptosis in human HCT-116 cells assessed as late apoptotic cells at 0.125 uM by Annexin V-FITC/PI staining based assay (reference value: 0.37%); type: functional
[32] = tested on: HCT-116; test: Induction of apoptosis in human HCT-116 cells assessed as necrotic cells at 0.125 uM by Annexin V-FITC/PI staining based assay (reference value: 1.05%); type: functional
[33] = tested on: HCT-116; test: Upregulation of H3K4me2 expression in human HCT-116 cells at 0.125 to 0.5 uM; type: functional, cell-based; conditions: dose 0.125-0.5 µM
[34] = tested on: HCT-116; test: Induction of apoptosis in human HCT-116 cells assessed as viable cells at 0.25 uM by Annexin V-FITC/PI staining based assay (reference value: 96.76%); type: functional; conditions: read-out: Activity

Structure (SMILES): C/C(=N\NC(=O)c1cccc(S(=O)(=O)N2CCN(C)CC2)c1)c1cc(Cl)ccc1O [SECLIDEMSTAT]
- Activity [7]: 2.48%
- Activity [8]: 5.44%
- Activity [9]: 1.32%
- Activity [10]: 0.97%
- IC50 [11]: 0.4 µM
- IC50 [1]: 1.1 µM
- Activity [12]: 3.22%
- IC50 [2]: 10.5 µM
- viability at 1 µM [13]: 93.5%
- solubility [3]: 35.7 µg/mL (≈ 79.2 µM)
- Activity [14]: 1.87%
- Activity [15]: 2.16%
- viability at 2 µM [16]: 91.7%
- Activity [17]: 0.64%
- Activity [18]: 4.56%
- viability at 0.5 µM [19]: 92.1%
- Activity [20]: 63%
- IC50 [4]: 2.4 µM
- IC50 [5]: 2.7 µM
- IC50 [6]: 0.6 µM

Structure (SMILES): CC1COCC(C)N1S(=O)(=O)c1cccc(C(=O)N/N=C2\CCc3c(Cl)ccc(O)c32)c1 (centres undefined)
- IC50 [11]: 0.6 µM
- IC50 [1]: 0.9 µM
- IC50 [2]: 9.2 µM
- solubility [3]: 23.9 µg/mL (≈ 50 µM)
- IC50 [4]: 0.5 µM
- IC50 [5]: 0.5 µM
- IC50 [6]: 0.5 µM

Structure (SMILES): CC1COCC(C)N1S(=O)(=O)c1cccc(C(=O)N/N=C2\CCc3cccc(O)c32)c1 (centres undefined)
- IC50 [11]: 0.3 µM
- IC50 [1]: 1 µM
- IC50 [2]: 11.8 µM
- solubility [3]: 30.2 µg/mL (≈ 68.1 µM)
- IC50 [4]: 0.7 µM
- IC50 [5]: 0.3 µM
- IC50 [6]: 0.7 µM

Second part, led by results:

- IC50 [1]: 2.9 µM
- IC50 [2]: 1.9 µM
- solubility [3]: 27.9 µg/mL (≈ 67.2 µM)
- IC50 [4]: 0.9 µM
- IC50 [5]: 0.9 µM
- IC50 [6]: 0.4 µM
Structure (SMILES): O=C(N/N=C1\CCc2cccc(O)c21)c1cccc(S(=O)(=O)N2CCOCC2)c1

- IC50 [11]: 0.6 µM
- IC50 [1]: 3.2 µM
- IC50 [2]: 7.6 µM
- solubility [3]: 46.9 µg/mL (≈ 109 µM)
- IC50 [4]: 1.6 µM
- IC50 [5]: 1.4 µM
- IC50 [6]: 0.9 µM
Structure (SMILES): O=C(N/N=C1\CCc2c(O)ccc(O)c21)c1cccc(S(=O)(=O)N2CCOCC2)c1

- IC50 [11]: 0.1 µM
- IC50 [1]: 0.8 µM
- IC50 [2]: 2.3 µM
- solubility [3]: 77.2 µg/mL (≈ 168 µM)
- IC50 [4]: 0.9 µM
- IC50 [5]: 0.3 µM
- IC50 [6]: 0.1 µM
Structure (SMILES): CC1COCC(C)N1S(=O)(=O)c1cccc(C(=O)N/N=C2\CCc3c(O)ccc(O)c32)c1 (centres undefined)
- Activity [21]: Dose-dependent-effect
- Activity [7]: 2%
- Activity [22]: 1.71%
- Activity [23]: 17.28%
- Activity [24]: 75%
- Activity [12]: 25.6%
- Activity [25]: 10.47%
- Activity [26]: Active; At High Concentration Showed More Potent Activity Than Sp-2577
- Activity [27]: 1.28%
- Activity [28]: Active; Slight Increase Observed
- viability at 0.125 µM [29]: 86.1%
- Activity [15]: 2.15%
- Activity [30]: Non-toxic
- Activity [31]: 2.73%
- viability at 0.5 µM [19]: 70.2%
- Activity [20]: 71%
- Activity [32]: 0.69%
- Activity [33]: Active; Slight Increase Observed
- viability at 0.25 µM [34]: 79.7%

- IC50 [11]: 0.5 µM
- IC50 [1]: 2.8 µM
- IC50 [2]: 2.5 µM
- solubility [3]: 29 µg/mL (≈ 64.5 µM)
- IC50 [5]: 1 µM
- IC50 [6]: 0.5 µM
Structure (SMILES): O=C(N/N=C1\CCc2c(Cl)ccc(O)c21)c1cccc(S(=O)(=O)N2CCOCC2)c1
